Assay results as given in ChEMBL document CHEMBL3885881, “DrugMatrix”.

Organism: Rattus norvegicus
Test: DrugMatrix - Regimen: Daily Repeat
Assay type: toxicity, organism-based, Sprague-Dawley
Parameters: regimen Daily Repeat, gender Male, age 6-8 weeks
Details: in vivo, po, route oral GAVAGE, vehicle 100 % WATER; for ABSOLUTE BASOPHIL / ABSOLUTE EOSINOPHIL / ABSOLUTE LYMPHOCYTE / ABSOLUTE MONOCYTE / ABSOLUTE SEGMENTED NEUTROPHIL / BASOPHIL / EOSINOPHIL / ERYTHROCYTE COUNT / HEMATOCRIT / HEMOGLOBIN / LEUKOCYTE COUNT / LYMPHOCYTE / MEAN CORPUSCULAR HEMOGLOBIN / MEAN CORPUSCULAR HEMOGLOBIN CONCENTRATION / MEAN CORPUSCULAR VOLUME / MONOCYTE / NEUTROPHIL / NUCLEATED RED BLOOD CELLS / PLATELET COUNT: tissue Blood; for ALANINE AMINOTRANSFERASE / ALBUMIN / ALKALINE PHOSPHATASE / ASPARTATE AMINOTRANSFERASE / BLOOD UREA NITROGEN / CARBON DIOXIDE / CHLORIDE / CHOLESTEROL / CREATINE PHOSPHOKINASE / CREATININE / GLUCOSE / LACTATE DEHYDROGENASE / LIPASE / PHOSPHORUS / POTASSIUM / SODIUM / TOTAL BILIRUBIN / TOTAL PROTEIN / URIC ACID: tissue Plasma
[1] = 0 mg/kg, 72 h, dose level Control, time 3 day
[2] = 0 mg/kg, 120 h, dose level Control, time 5 day
[3] = 11 mg/kg, 72 h, dose level Low, time 3 day

CN(C)C(=O)Oc1cccc([N+](C)(C)C)c1.[Br-] [NEOSTIGMINE BROMIDE]
ABSOLUTE BASOPHIL [1]: 0 CELLS/uL
ABSOLUTE EOSINOPHIL [1]: 32.5 CELLS/uL
ABSOLUTE LYMPHOCYTE [1]: 9305.83 CELLS/uL
ABSOLUTE MONOCYTE [1]: 43.83 CELLS/uL
ABSOLUTE SEGMENTED NEUTROPHIL [1]: 817.83 CELLS/uL
BASOPHIL [1]: 0%
EOSINOPHIL [1]: 0.33%
ERYTHROCYTE COUNT [1]: 5.38 x10E6/uL
HEMATOCRIT [1]: 33.63%
HEMOGLOBIN [1]: 13.17 G/DL
LEUKOCYTE COUNT [1]: 10.2 x10E3/uL
LYMPHOCYTE [1]: 91.17%
MEAN CORPUSCULAR HEMOGLOBIN [1]: 24.5 pg
MEAN CORPUSCULAR HEMOGLOBIN CONCENTRATION [1]: 39.13 G/DL
MEAN CORPUSCULAR VOLUME [1]: 62.53 fL
MONOCYTE [1]: 0.5%
NEUTROPHIL [1]: 8%
NUCLEATED RED BLOOD CELLS [1]: 0.17 /100WBC
PLATELET COUNT [1]: 858 x10E3/uL
ALANINE AMINOTRANSFERASE [1]: 55.67 u/L
ALBUMIN [1]: 4.07 G/DL
ALKALINE PHOSPHATASE [1]: 337 u/L
ASPARTATE AMINOTRANSFERASE [1]: 84 u/L
BLOOD UREA NITROGEN [1]: 13.17 mg/dL
CARBON DIOXIDE [1]: 34.17 mmol/L
CHLORIDE [1]: 99.33 MEQ/L
CHOLESTEROL [1]: 78.83 mg/dL
CREATINE PHOSPHOKINASE [1]: 576.83 u/L
CREATININE [1]: 0.17 mg/dL
GLUCOSE [1]: 152.67 mg/dL
LACTATE DEHYDROGENASE [1]: 147.83 u/L
LIPASE [1]: 9.5 u/L
PHOSPHORUS [1]: 10.78 mg/dL
POTASSIUM [1]: 6.34 MEQ/L
SODIUM [1]: 144.12 MEQ/L
TOTAL BILIRUBIN [1]: 0.18 mg/dL
TOTAL PROTEIN [1]: 6.08 G/DL
URIC ACID [1]: 0.65 mg/dL
ABSOLUTE BASOPHIL [2]: 0 CELLS/uL
ABSOLUTE EOSINOPHIL [2]: 31.17 CELLS/uL
ABSOLUTE LYMPHOCYTE [2]: 7918.33 CELLS/uL
ABSOLUTE MONOCYTE [2]: 58.33 CELLS/uL
ABSOLUTE SEGMENTED NEUTROPHIL [2]: 725.5 CELLS/uL
BASOPHIL [2]: 0%
EOSINOPHIL [2]: 0.33%
ERYTHROCYTE COUNT [2]: 5.32 x10E6/uL
HEMATOCRIT [2]: 33.53%
HEMOGLOBIN [2]: 13.17 G/DL
LEUKOCYTE COUNT [2]: 8.73 x10E3/uL
LYMPHOCYTE [2]: 90.33%
MEAN CORPUSCULAR HEMOGLOBIN [2]: 24.82 pg
MEAN CORPUSCULAR HEMOGLOBIN CONCENTRATION [2]: 39.33 G/DL
MEAN CORPUSCULAR VOLUME [2]: 63.12 fL
MONOCYTE [2]: 0.67%
NEUTROPHIL [2]: 8.67%
NUCLEATED RED BLOOD CELLS [2]: 0 /100WBC
PLATELET COUNT [2]: 1144.83 x10E3/uL
ALANINE AMINOTRANSFERASE [2]: 60.5 u/L
ALBUMIN [2]: 3.97 G/DL
ALKALINE PHOSPHATASE [2]: 343.17 u/L
ASPARTATE AMINOTRANSFERASE [2]: 80.83 u/L
BLOOD UREA NITROGEN [2]: 15 mg/dL
CARBON DIOXIDE [2]: 31 mmol/L
CHLORIDE [2]: 99.75 MEQ/L
CHOLESTEROL [2]: 71.5 mg/dL
CREATINE PHOSPHOKINASE [2]: 237.17 u/L
CREATININE [2]: 0.17 mg/dL
GLUCOSE [2]: 137 mg/dL
LACTATE DEHYDROGENASE [2]: 146.17 u/L
LIPASE [2]: 11.5 u/L
PHOSPHORUS [2]: 10.13 mg/dL
POTASSIUM [2]: 6 MEQ/L
SODIUM [2]: 145 MEQ/L
TOTAL BILIRUBIN [2]: 0.13 mg/dL
TOTAL PROTEIN [2]: 5.82 G/DL
URIC ACID [2]: 0.62 mg/dL
ABSOLUTE BASOPHIL [3]: 0 CELLS/uL
ABSOLUTE EOSINOPHIL [3]: 0 CELLS/uL
ABSOLUTE LYMPHOCYTE [3]: 8155 CELLS/uL
ABSOLUTE MONOCYTE [3]: 60.33 CELLS/uL
ABSOLUTE SEGMENTED NEUTROPHIL [3]: 851.33 CELLS/uL
BASOPHIL [3]: 0%
EOSINOPHIL [3]: 0%
ERYTHROCYTE COUNT [3]: 5.22 x10E6/uL
HEMATOCRIT [3]: 32.5%
HEMOGLOBIN [3]: 12.8 G/DL
LEUKOCYTE COUNT [3]: 9.07 x10E3/uL
LYMPHOCYTE [3]: 90%
MEAN CORPUSCULAR HEMOGLOBIN [3]: 24.53 pg
MEAN CORPUSCULAR HEMOGLOBIN CONCENTRATION [3]: 39.4 G/DL
MEAN CORPUSCULAR VOLUME [3]: 62.3 fL
MONOCYTE [3]: 0.67%
NEUTROPHIL [3]: 9.33%
NUCLEATED RED BLOOD CELLS [3]: 0 /100WBC
PLATELET COUNT [3]: 925.67 x10E3/uL
ALANINE AMINOTRANSFERASE [3]: 55.67 u/L
ALBUMIN [3]: 3.93 G/DL
ALKALINE PHOSPHATASE [3]: 332.67 u/L
ASPARTATE AMINOTRANSFERASE [3]: 81.67 u/L
BLOOD UREA NITROGEN [3]: 13.67 mg/dL
CARBON DIOXIDE [3]: 34.33 mmol/L
CHLORIDE [3]: 98.67 MEQ/L
CHOLESTEROL [3]: 82.67 mg/dL
CREATINE PHOSPHOKINASE [3]: 214.67 u/L
CREATININE [3]: 0.14 mg/dL
GLUCOSE [3]: 150.67 mg/dL
LACTATE DEHYDROGENASE [3]: 142.33 u/L
LIPASE [3]: 9.33 u/L
PHOSPHORUS [3]: 10.87 mg/dL
POTASSIUM [3]: 5.64 MEQ/L
SODIUM [3]: 144.73 MEQ/L
TOTAL BILIRUBIN [3]: 0.17 mg/dL
TOTAL PROTEIN [3]: 5.97 G/DL
URIC ACID [3]: 0.47 mg/dL
